Assay results from US20220226337A1 (Gilead Sciences, Inc., priority 2018, published 2022).

What follows are molecules tested against T1, α4β7 integrin interaction with MadCAM-1 (RPMI8866 cells) (Homo sapiens, UniProt P13612+P26010) (assay: α4β7 Integrin Cell Capture Assay). Details: capture of α4β7 integrin expressing RPMI8866 cells on recombinant MadCAM-1 extracellular domain-coated plate; 0.5 mM MnCl2.
T1 construct: α4β7 integrin expressing cells; endogenous in cells; host or cells: RPMI8866 cells
T1 sequence (P13612 34-1032): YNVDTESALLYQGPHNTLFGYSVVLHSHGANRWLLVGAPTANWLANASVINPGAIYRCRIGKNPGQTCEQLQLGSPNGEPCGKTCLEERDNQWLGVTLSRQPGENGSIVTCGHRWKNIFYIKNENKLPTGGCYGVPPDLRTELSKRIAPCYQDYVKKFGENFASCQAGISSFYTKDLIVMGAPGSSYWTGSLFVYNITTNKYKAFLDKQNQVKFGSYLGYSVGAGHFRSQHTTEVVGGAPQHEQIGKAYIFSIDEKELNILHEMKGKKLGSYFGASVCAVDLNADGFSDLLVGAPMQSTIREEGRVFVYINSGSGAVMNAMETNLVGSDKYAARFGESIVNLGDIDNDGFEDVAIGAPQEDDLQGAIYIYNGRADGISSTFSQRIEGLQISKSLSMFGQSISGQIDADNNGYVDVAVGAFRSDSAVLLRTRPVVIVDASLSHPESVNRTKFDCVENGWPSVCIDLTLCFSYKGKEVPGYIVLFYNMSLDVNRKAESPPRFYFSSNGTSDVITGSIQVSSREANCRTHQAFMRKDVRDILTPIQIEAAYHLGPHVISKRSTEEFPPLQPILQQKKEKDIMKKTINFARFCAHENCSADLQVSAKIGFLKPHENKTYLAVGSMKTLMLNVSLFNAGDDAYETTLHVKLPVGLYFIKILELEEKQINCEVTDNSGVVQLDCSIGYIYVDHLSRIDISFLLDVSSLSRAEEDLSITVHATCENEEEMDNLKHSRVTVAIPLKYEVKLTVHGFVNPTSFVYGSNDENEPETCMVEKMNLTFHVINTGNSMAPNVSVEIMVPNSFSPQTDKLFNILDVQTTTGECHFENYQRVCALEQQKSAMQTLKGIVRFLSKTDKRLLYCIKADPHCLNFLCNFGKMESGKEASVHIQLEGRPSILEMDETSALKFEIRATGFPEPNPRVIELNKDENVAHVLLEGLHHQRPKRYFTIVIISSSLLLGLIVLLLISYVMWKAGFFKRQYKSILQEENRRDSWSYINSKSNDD
T1 sequence (P26010 20-798): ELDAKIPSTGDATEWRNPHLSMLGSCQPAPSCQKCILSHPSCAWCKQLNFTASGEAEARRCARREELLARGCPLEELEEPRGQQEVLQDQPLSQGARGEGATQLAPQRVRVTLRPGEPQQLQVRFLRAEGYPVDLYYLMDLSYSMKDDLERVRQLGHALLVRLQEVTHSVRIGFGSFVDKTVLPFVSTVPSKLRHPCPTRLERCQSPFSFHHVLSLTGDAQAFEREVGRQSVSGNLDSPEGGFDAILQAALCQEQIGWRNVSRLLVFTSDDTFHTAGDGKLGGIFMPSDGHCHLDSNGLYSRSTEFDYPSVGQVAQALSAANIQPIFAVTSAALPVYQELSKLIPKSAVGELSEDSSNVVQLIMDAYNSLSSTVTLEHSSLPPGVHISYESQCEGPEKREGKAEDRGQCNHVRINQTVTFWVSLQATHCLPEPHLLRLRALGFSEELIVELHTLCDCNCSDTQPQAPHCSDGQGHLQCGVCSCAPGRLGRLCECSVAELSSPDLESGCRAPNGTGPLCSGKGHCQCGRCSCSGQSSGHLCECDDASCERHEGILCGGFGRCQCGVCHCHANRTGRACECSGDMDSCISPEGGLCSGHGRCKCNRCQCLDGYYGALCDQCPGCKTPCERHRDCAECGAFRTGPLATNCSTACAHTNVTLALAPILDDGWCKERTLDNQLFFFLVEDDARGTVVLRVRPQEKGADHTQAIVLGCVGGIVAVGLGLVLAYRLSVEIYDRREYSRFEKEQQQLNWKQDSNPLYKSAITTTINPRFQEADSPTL
Format: cell-based
Experimental: The potency of inhibitors in preventing α4β7 integrin interaction with MadCAM-1 was measured by monitoring the capture of α4β7 integrin expressing cells on a recombinant MadCAM-1 extracellular domain-coated plate. 384-well plates (Corning 3702) were coated with MadCAM-1 extracellular domain by dispensing 20 μL of MAdCAM-1 at 1.0 μg/mL per well and incubating overnight at 4° C. The plates were then washed with PBS and blocked with 3% BSA for 2 hours before being washed again. RPMI8866 cells were spun down and re-suspended in assay medium (DMEM+0.5% FBS+0.5 mM MnCl2) at a density of 0.5×10^6 cells/mL. The cells were then dispensed (60 μL/well) to a 384-well plate (Greiner 781280) that was previously spotted with 60 nL of test compound per well. The plates were incubated at 37° C. for 1 hour. 50 μL of cells were transferred to the blocked, MadCAM-1-coated plates and incubated for 30 minutes at 37° C. 10 μL of 12% glutaraldehyde containing Hoechst 33342 (0.06 mg/mL) was added to the cells (2% glutaraldehyde and 0.01 mg/mL final concentrations). The plates were incubated for 90 minutes at room temperature. The plates were then washed 3 times with 70 μL of PBS per well and imaged on a Cellomics ArrayScan instrument. The cells that were bound to the plate were counted and plotted against the compound concentration to determine the EC50 of the test compounds.

Row | SMILES | EC50
1 | Cc1cc(N2CCOC[C@@H]2C(F)(F)F)cc(F)c1C(=O)N[C@@H](Cc1ccc(-c2nc(C)c(C)n(C)c2=O)c2c1CCC2)C(=O)O [Example 199] | 0.19 nM
2 | Cn1cc(-c2ccc(C[C@H](NC(=O)c3c(F)cccc3F)C(=O)O)c3c2OCCC3)c(=O)n(C)c1=O [Example 73, (S)-2-(2,6-difluorobenzamido)-3-(8-(1,3-dimethyl-2,4-dioxo-1,2,3,4-tetrahydropyrimidin-5-yl)chroman-5-yl)propanoic acid] | 17.3 nM
3 | O=C(N[C@@H](Cc1ccc(-c2c(Cl)cc(F)cc2Cl)c2c1CCCO2)C(=O)O)c1c(F)cc(N[C@H](c2ccccc2)C(F)(F)F)cc1F [Example 84, (S)-3-(8-(2,6-dichloro-4-fluorophenyl)chroman-5-yl)-2-(2,6-difluoro-4-(((R)-2,2,2-trifluoro-1-phenylethyl)amino)benzamido)propanoic acid] | 64 nM
4 | Cc1nc(-c2ccc(C[C@H](NC(=O)c3c(F)cc(N4CCO[C@@H](C)C4)cc3F)C(=O)O)c3c2OCCC3)c(=O)n(C)c1C [Example 157] | 1.82 nM
5 | O=C(N[C@@H](Cc1ccc(-c2c(Cl)cc(F)cc2Cl)c2c1CCCO2)C(=O)O)c1c(F)cccc1F [Example 74, (S)-3-(8-(2,6-dichloro-4-fluorophenyl)chroman-5-yl)-2-(2,6-difluorobenzamido)propanoic acid] | 79.7 nM
6 | O=C(N[C@@H](Cc1ccc(-c2c(Cl)cc(F)cc2Cl)c2c1OCCCO2)C(=O)O)c1c(Cl)cccc1Cl [Example 97, (S)-3-(9-(2,6-dichloro-4-fluorophenyl)-3,4-dihydro-2H-benzo[b][1,4]dioxepin-6-yl)-2-(2,6-dichlorobenzamido)propanoic acid] | 62 nM
7 | O=C(N[C@@H](Cc1ccc(-c2ncccc2C(F)(F)F)c2c1CCCO2)C(=O)O)c1c(F)cc(N[C@H](c2ccccc2)C(F)(F)F)cc1F [Example 86, (S)-2-(2,6-difluoro-4-(((R)-2,2,2-trifluoro-1-phenylethyl)amino)benzamido)-3-(8-(3-(trifluoromethyl)pyridin-2-yl)chroman-5-yl)propanoic acid] | 3.34 nM
8 | Cc1nc(-c2ccc(C[C@H](NC(=O)c3c(F)cc(N4CCOC[C@@H]4C(F)(F)F)cc3F)C(=O)O)c3c2C[C@H](O)C3)c(=O)n(C)c1C [Example 191] | 0.371 nM
9 | Cc1c(-c2ccc(C[C@H](NC(=O)c3c(F)cccc3F)C(=O)O)c3c2CCC3)c(=O)n(C)c2ccc(F)cc12 [Example 105, (S)-2-(2,6-difluorobenzamido)-3-(7-(6-fluoro-1,4-dimethyl-2-oxo-1,2-dihydroquinolin-3-yl)-2,3-dihydro-1H-inden-4-yl)propanoic acid] | 2.44 nM
10 | O=C(N[C@@H](Cc1ccc(-c2c(Cl)cc(F)cc2Cl)c2c1CCCN2)C(=O)O)c1c(F)cccc1F [Example 101, (S)-3-(8-(2,6-dichloro-4-fluorophenyl)-1,2,3,4-tetrahydroquinolin-5-yl)-2-(2,6-difluorobenzamido)propanoic acid] | 26.9 nM
11 | Cc1nc(C)n(C)c(=O)c1-c1ccc(C[C@H](NC(=O)c2c(F)cc(N3CCOC[C@@H]3C(F)(F)F)cc2F)C(=O)O)c2c1OCCC2 [Example 130] | 0.341 nM
12 | Cc1cc(N2CCOC[C@@H]2C(F)(F)F)cc(F)c1C(=O)N[C@@H](Cc1ccc(-c2c(C)c(C)c(C)n(C)c2=O)c2c1CCCO2)C(=O)O [Example 151] | 0.144 nM
13 | COc1ccc(C)nc1-c1ccc(C[C@H](NC(=O)c2c(F)cc(N3CCOC[C@@H]3C(F)(F)F)cc2F)C(=O)O)c2c1OCCC2 [Example 140] | 0.55 nM
14 | Cc1nc(-c2ccc(C[C@H](NC(=O)c3c(F)cc(N4CCOC[C@@H]4C(F)(F)F)cc3F)C(=O)O)c3c2C[C@@H](O)C3)c(=O)n(C)c1C [Example 192] | 0.228 nM
15 | Cc1nc(-c2ccc(C[C@H](NC(=O)c3c(F)cc(N4CCCC[C@@H]4C(F)(F)F)cc3F)C(=O)O)c3c2OCCC3)c(=O)n(C)c1C [Example 156] | 0.84 nM
16 | COc1cc2ccccc2cc1-c1ccc(C[C@H](NC(=O)c2c(F)cccc2F)C(=O)O)c2c1OCCO2 [Example 11, (S)-2-(2,6-difluorobenzamido)-3-(8-(3-methoxynaphthalen-2-yl)-2,3-dihydrobenzo[b][1,4]dioxin-5-yl)propanoic acid] | 29.3 nM
17 | Cc1cc(N2CCOC[C@@H]2C(F)(F)F)cc(F)c1C(=O)N[C@@H](Cc1ccc(-c2c(C)c(C(F)(F)F)cn(C)c2=O)c2c1CCC2)C(=O)O [Example 196] | 0.264 nM
18 | Cc1c(-c2ccc(C[C@H](NC(=O)c3c(F)cc(N4CCOC[C@@H]4C(F)(F)F)cc3F)C(=O)O)c3c2OCCC3)c(=O)n(C)c2ccc(F)cc12 [Example 34, (S)-2-(2,6-difluoro-4-((R)-3-(trifluoromethyl)morpholino)benzamido)-3-(8-(6-fluoro-1,4-dimethyl-2-oxo-1,2-dihydroquinolin-3-yl)chroman-5-yl)propanoic acid] | 0.236 nM
19 | Cc1cc(N2CCOC[C@@H]2C(F)(F)F)cc(F)c1C(=O)N[C@@H](Cc1ccc(-n2c(=O)c3ccncc3n(C)c2=O)c2c1CCCO2)C(=O)O [Example 115, (S)-2-(2-fluoro-6-methyl-4-((R)-3-(trifluoromethyl)morpholino)benzamido)-3-(8-(1-methyl-2,4-dioxo-1,4-dihydropyrido[3,4-d]pyrimidin-3(2H)-yl)chroman-5-yl)propanoic acid] | 0.027 nM
20 | Cc1cc(C(F)(F)F)c(-c2ccc(C[C@H](NC(=O)c3c(F)cc(N[C@H](C)C(F)(F)F)cc3F)C(=O)O)c3c2OCCC3)c(=O)n1C (single isomer, unassigned) [Example 42] | 1.42 nM
21 | Cn1nc(C(F)(F)F)cc(-c2ccc(C[C@H](NC(=O)c3c(F)cc(N4CCOC[C@@H]4C(F)(F)F)cc3F)C(=O)O)c3c2OCCC3)c1=O [Example 133] | 1.42 nM
22 | O=C(N[C@@H](Cc1ccc(-c2c(Cl)cc(F)cc2Cl)c2c1OCCCO2)C(=O)O)c1c(F)cccc1F [Example 96, (S)-3-(9-(2,6-dichloro-4-fluorophenyl)-3,4-dihydro-2H-benzo[b][1,4]dioxepin-6-yl)-2-(2,6-difluorobenzamido)propanoic acid] | 42.3 nM
23 | O=C(N[C@@H](Cc1ccc(-c2c(Cl)cc(F)cc2Cl)c2c1[C@H]1C[C@H]1CO2)C(=O)O)c1c(F)cccc1F (single isomer, unassigned) [Example 78] | 120 nM
24 | CCc1nc(-c2ccc(C[C@H](NC(=O)c3c(F)cccc3F)C(=O)O)c3c2OCCO3)c(C(F)(F)F)c2ccccc12 [Example 3] | 6.49 nM
